Test results from patent publication US9486422B2, “Small molecule inhibitors of Mcl-1 and the uses of thereof” (THE REGENTS OF THE UNIVERSITY OF MICHIGAN, priority 2011, dated 2016).
Where two headings read alike, the source gives them in different places.

Columns and labels:
Mcl-1 = Mcl-1 (Homo sapiens, UniProt Q07820); assay: FP-based binding assay, Mcl-1; settings: for IC50: Flu-BID 2 nM, Mcl-1 90 nM, read-out: Mcl-1 IC50 ± SD; for Ki: read-out: Mcl-1 Ki ± SD
Bcl-w = target: T1, Bcl-w (Homo sapiens, UniProt Q92843); assay: FP-based binding assay, Bcl-w; settings: for Ki: competitive FP, FAM-BID 2 nM, protein 40 nM, read-out: Bcl-w Ki ± SD
T1 sequence (Q92843 1-155): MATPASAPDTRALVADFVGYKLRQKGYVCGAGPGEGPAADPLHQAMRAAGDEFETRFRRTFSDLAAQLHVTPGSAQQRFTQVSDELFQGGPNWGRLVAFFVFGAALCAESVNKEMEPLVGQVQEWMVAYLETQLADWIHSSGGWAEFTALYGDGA

A1/Bfl-1 = target: T2, A1/Bfl-1 (Homo sapiens, UniProt Q16548); assay: FP-based binding assay, A1/Bfl-1; settings: for Ki: read-out: A1/Bfl-1 Ki ± SD
T2 sequence (Q16548 1-151): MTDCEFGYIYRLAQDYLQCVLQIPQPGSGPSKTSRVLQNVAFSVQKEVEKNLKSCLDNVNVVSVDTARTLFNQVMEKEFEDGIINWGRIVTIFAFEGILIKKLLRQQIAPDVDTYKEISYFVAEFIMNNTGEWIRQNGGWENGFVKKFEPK

Bcl-2 = target: T3, Bcl-2 (Homo sapiens, UniProt P10415); assay: FP-based binding assay, Bcl-2; settings: competitive FP, Flu-BID 2 nM, protein 60 nM; read-out: Bcl-2 Ki ± SD
T3 construct: His-tagged proteins containing; fused on or other part: A 16-residue segment of the flexible loop of Bcl-xL (BCL2L1, Q07817; given as residues 35 to 50) set into the Bcl-2 loop region; His tag with TEV site from the pHis-TEV vector
T3 sequence (P10415 with tags, fused parts or gaps with the stated changes): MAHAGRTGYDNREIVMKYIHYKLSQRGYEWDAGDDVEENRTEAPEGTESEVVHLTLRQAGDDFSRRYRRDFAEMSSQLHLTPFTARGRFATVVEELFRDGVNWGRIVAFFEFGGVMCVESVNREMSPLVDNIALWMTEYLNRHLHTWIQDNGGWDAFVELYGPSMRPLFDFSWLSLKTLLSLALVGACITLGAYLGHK

Bcl-xL = Bcl-xL (Homo sapiens, UniProt Q07817, DEL45-85); assay: FP-based binding assay, Bcl-xL; settings: read-out: Bcl-xL Ki ± SD
Sequence of Bcl-xL (Q07817 other isoform, or with tags, fused parts or gaps DEL45-85): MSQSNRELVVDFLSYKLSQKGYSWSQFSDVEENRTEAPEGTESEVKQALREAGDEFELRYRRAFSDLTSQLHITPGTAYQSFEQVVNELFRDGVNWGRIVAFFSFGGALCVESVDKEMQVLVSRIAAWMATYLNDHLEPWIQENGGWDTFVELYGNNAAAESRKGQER

[1] = competitive FP, Ki calculated from IC50
[2] = competitive FP, FAM-BID 1 nM, protein 4 nM
[3] = competitive FP, FAM-BID 2 nM, protein 50 nM

Sequence of Mcl-1 (Q07820 171-327): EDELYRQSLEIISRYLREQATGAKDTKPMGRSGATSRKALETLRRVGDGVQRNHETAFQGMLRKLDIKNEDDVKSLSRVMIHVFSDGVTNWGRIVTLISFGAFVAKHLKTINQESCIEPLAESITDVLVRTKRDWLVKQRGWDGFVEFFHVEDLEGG

NC(=O)CSc1cc(NS(=O)(=O)c2ccc(Br)cc2)c2ccccc2c1O [Compound 33, 2-((4-(4-Bromophenylsulfonamido)-1-hydroxynaphthalen-2-yl)thio)acetamide]
IC50 (Mcl-1; competitive FP): 6.27 ± 1.28 µM
Ki (Mcl-1): 1.71 ± 0.35 µM

CCCCSc1cc(NS(=O)(=O)c2ccc(Br)cc2)c2ccccc2c1O [Compound 30, 4-Bromo-N-(3-(butylthio)-4-hydroxynaphthalen-1-yl)benzenesulfonamide]
binding to Mcl-1, result in words (Mcl-1; FP assay): abolished the binding to Mcl-1 protein
IC50 (Mcl-1; competitive FP): > 100 µM
Ki (Mcl-1; [1]): > 25 µM

O=C(O)CSc1cc(NC(=O)Cc2ccccc2)c2ccccc2c1O [Compound 24, 2-((1-Hydroxy-4-(2-phenylacetamido)naphthalen-2-yl)thio)acetic acid]
IC50 (Mcl-1; competitive FP): 154 ± 40.2 µM
Ki (Mcl-1; [1]): 42.4 ± 11 µM

CS(=O)(=O)Nc1cc(SCC(=O)O)c(O)c2ccccc12 [Compound 21, 2-((1-Hydroxy-4-(methylsulfonamido)naphthalen-2-yl)thio)acetic acid]
IC50 (Mcl-1; competitive FP): > 200 µM
Ki (Mcl-1; [1]): > 50 µM

O=C(O)CSc1cc(NS(=O)(=O)c2ccc(F)cc2)c2ccccc2c1O [Compound 7]
IC50 (Mcl-1; competitive FP): 15.5 ± 3.38 µM
Ki (Mcl-1; [1]): 4.23 ± 0.93 µM

O=C(O)CSc1cc(NS(=O)(=O)c2ccc3ccccc3c2)c2ccccc2c1O [Compound 13]
IC50 (Mcl-1; competitive FP): 2.74 ± 0.18 µM
Ki (Mcl-1; [1]): 0.73 ± 0.05 µM

CC(C)(C)c1ccc(S(=O)(=O)Nc2cc(SCC(=O)O)c(O)c3ccccc23)cc1 [Compound 6]
IC50 (Mcl-1; competitive FP): 3.03 ± 0.17 µM
Ki (Mcl-1; [1]): 0.81 ± 0.04 µM

COC(=O)CSc1cc(NS(=O)(=O)c2ccc(Br)cc2)c2ccccc2c1O [Compound 29, Methyl 2-((4-(4-bromophenylsulfonamido)-1-hydroxynaphthalen-2-yl)thio)acetate]
Ki (Bcl-w): > 90 µM
Ki (A1/Bfl-1; [2]): > 140 µM
Ki (Bcl-2): 23.8 ± 5.08 µM
Ki (Bcl-xL; [3]): > 130 µM
IC50 (Mcl-1; competitive FP): 18.6 ± 4.93 µM
Ki (Mcl-1; [1]): 5.08 ± 1.35 µM

O=S(=O)(Nc1cc(CCCCO)c(O)c2ccccc12)c1ccc(Br)cc1 [Compound 32, 4-Bromo-N-(4-hydroxy-3-(4-hydroxybutyl)naphthalen-1-yl)benzenesulfonamide]
fold decreased binding to Mcl-1 compared to 9 (UMI-77) (Mcl-1): 4 fold
IC50 (Mcl-1; competitive FP): 8.01 ± 3.31 µM
Ki (Mcl-1): 2.18 ± 0.91 µM

CCCCSc1cc(NS(=O)(=O)c2ccc(Br)cc2)c2ccccc2c1OC [Compound 40p, 4-Bromo-N-(3-(butylthio)-4-methoxynaphthalen-1-yl)benzenesulfonamide]
IC50 (Mcl-1; competitive FP): > 800 µM
Ki (Mcl-1; [1]): > 200 µM

O=C(O)CSc1cc(NS(=O)(=O)c2cccc(Br)c2)c2ccccc2c1O [Compound 10, 2-((4-(3-Bromophenylsulfonamido)-1-hydroxynaphthalen-2-yl)thio)acetic acid]
IC50 (Mcl-1; competitive FP): 8.64 ± 0.69 µM
Ki (Mcl-1; [1]): 2.35 ± 0.19 µM

CC[C@H](C)[C@H](NC(=O)[C@H](CC(N)=O)NC(=O)[C@H](CCCNC(=N)N)NC(=O)[C@@H](NC(=O)[C@@H](NC(=O)[C@H](CC(=O)O)NC(=O)[C@H](CCC(=O)O)NC(=O)c1ccc2c(c1)C(=O)OC21c2ccc(O)cc2Oc2cc(O)ccc21)[C@@H](C)CC)[C@@H](C)CC)C(=O)N[C@@H](C)C(=O)N[C@@H](CCCNC(=N)N)C(=O)N[C@@H](Cc1c[nH]cn1)C(=O)N[C@@H](CC(C)C)C(=O)N[C@@H](C)C(=O)N[C@@H](CCC(N)=O)C(=O)N[C@H](C(=O)NCC(=O)N[C@@H](CC(=O)O)C(=O)N[C@@H](CO)C(=O)N[C@@H](CCSC)C(=O)N[C@@H](CC(=O)O)C(=O)N[C@@H](CCCNC(=N)N)C(=O)O)C(C)C [FAM-BID, reference compound]
Kd (Bcl-w; saturation experiments, tracer 2 nM, read-out: Kd of fluorescent probe to Bcl-w): 0.0055 ± 0.0016 µM
Kd (A1/Bfl-1; saturation experiments, tracer 2 nM, read-out: Kd of fluorescent probe to A1/Bfl-1): 0.00083 ± 6e-05 µM

COC(=O)CSc1cc(NS(=O)(=O)c2ccc(Br)cc2)c2ccccc2c1OC [Compound 40d, Methyl 2-((4-(4-bromophenylsulfonamido)-1-methoxynaphthalen-2-yl)thio)acetate]
IC50 (Mcl-1; competitive FP): > 800 µM
Ki (Mcl-1; [1]): > 200 µM

O=C(O)CSc1cc(NS(=O)(=O)c2ccc(Oc3ccccc3)cc2)c2ccccc2c1O [Compound 18, 2-((1-Hydroxy-4-(4-phenoxyphenylsulfonamido)naphthalen-2-yl)thio)acetic acid]
Ki (Bcl-w): 1.58 ± 0.35 µM
Ki (A1/Bfl-1; [2]): 3.36 ± 0.56 µM
Ki (Bcl-xL; [3]): 10.6 ± 1.53 µM

O=C(O)CSc1cc(NS(=O)(=O)c2ccc(-c3ccccc3)cc2)c2ccccc2c1O [Compound 14, 2-((4-([1,1′-Biphenyl]-4-ylsulfonamido)-1-hydroxynaphthalen-2-yl)thio)acetic acid]
Ki (Bcl-w): 1.92 ± 0.37 µM
Ki (A1/Bfl-1): 2.34 ± 0.37 µM
Ki (Bcl-xL): 8.05 ± 0.5 µM
fold improved binding to Mcl-1 compared to 2 (Mcl-1): 9 fold
IC50 (Mcl-1; competitive FP): 1.4 ± 0.36 µM
Ki (Mcl-1): 0.37 ± 0.1 µM

O=C(O)CSc1cc(NS(=O)(=O)c2cccc(-c3ccccc3)c2)c2ccccc2c1O [Compound 15, 2-((4-([1,1′-Biphenyl]-3-ylsulfonamido)-1-hydroxynaphthalen-2-yl)thio)acetic acid]
Ki (Bcl-w): 2.19 ± 0.45 µM
Ki (A1/Bfl-1): 3.18 ± 0.41 µM
Ki (Bcl-xL): 15.1 ± 1.11 µM
fold improved binding to Mcl-1 compared to 2 (Mcl-1): 9 fold
IC50 (Mcl-1; competitive FP): 1.41 ± 0.17 µM
Ki (Mcl-1): 0.38 ± 0.03 µM
